From US4314061A, “Certain 3,6-bis-(heteroaminoalkoxy) acridines” (priority 1980, dated 1982)

Legend:
Lewis lung carcinoma = assay: Surgical-adjuvant antitumor activity against Lewis lung carcinoma implanted subcutaneously in footpads; format: in vivo, BDF1 mice; conditions: for Average % of tumor weight inhibition / Average tumor weight: Day +11; for No. Survivors/No. Treated: at +90 days; for % Increased life-span: + significant (≥25%)
Method: BDF1 mice were inoculated subcutaneously in the right hind footpad with 5×10^5 viable Lewis Lung carcinoma cells, on day zero. […] A control group of mice received a saline placebo instead of drug, and another group of tumor bearing mice received the positive control drug cyclophosphamide, at 100 mg/kg, administered by intraperitoneal injection. On the 11th day after tumor implantation, the mice were anesthesized with Nembutal, and the tumor bearing feet surgically amputated above the ankle joint. The surgical incision was swabbed with alcohol and sealed with stainless steel wound clips. The tumor bearing feet were individually weighed and the average weight of a normal foot (determined by weighing amputated feet from non-tumor bearing mice of the same age, sex and body weight) was subtracted to obtain the weight of tumor tissue in the amputated foot. Mice were then observed for deaths until the 90th day after tumor implantation. […]
^1 BDF1 male mice inoculated subcutaneously in footpad with 5
× 10^5 Lewis lung tumor cells on day zero;
3,6bis(2-diethylaminoethoxy)acridine trihydrochloride administered orally
and Cyclophosphamide intraperitoneally, on days 1, 7, and 13 following
^2 Average tumor weight determined after surgical amputation of tumor
bearing foot on day 11 following tumor implantation.

circulating interferon = assay: Induction of circulating interferon in mice; format: in vivo, BDF1 mice; conditions: 300 mg/kg single oral
Columbia SK virus [1] = assay: Antiviral effects against an interferon-sensitive virus, Columbia SK; format: in vivo, Taconic Farms male, white mice; conditions: 400 mg/kg oral, 18 hours before infection; 14 days post injection
Method: Taconic Farms male, white mice, weighing 18-24 g were treated by gavage, 18 hours before infection with a test compound suspended or dissolved in 1.0 ml of 0.2% aqueous agar solution. The mice were then infected by subcutaneous injection with one LD95 of Columbia SK virus in 0.2 ml of distilled water. Groups of infected, untreated mice were used as controls to show the lethality of the infection. The test duration was 14 days.

Columbia SK virus [2] = assay: Protection of mice against lethal Columbia SK virus infection by oral pre-treatment; format: in vivo, random-bred Swiss male mice; conditions: 400 mg/kg oral
Method: At 24, 48, 72 and 96 hours after drug treatment, separate groups of mice were injected SC with an LD95 dose of the interferon sensitive virus, Columbia SK. […] Typically, protection from lethal infection with Columbia SK virus is associated with induction of interferon.

normal mouse bone marrow = assay: Effect on normal mouse bone marrow; format: in vivo, C57 BL6 male mice; conditions: 24 hours after treatment; test compound oral, Cytoxan intraperitoneal
Method: The effect of drugs on normal mouse bone marrow is evaluated by determining total cell counts of femurs and by the ability of surviving cells to form colonies in semi-solid medium. The test compound is administered orally and the reference drug Cytoxan is administered intraperitoneally to C57 BL6 male mice. One femur from each of three mice per dose level is assayed 24 hours after treatment. Counts of nucleated cells are performed on pooled marrow suspensions and the clonogenic assay is performed by plating 50,000 cells in one ml. of culture medium in each of four culture dishes. The medium to support bone marrow progenitor cell growth is McCoy's medium supplemented with 0.9% methocel, 1.8% human serum albumin, 10% bovine fetal serum and 10% "conditioned" L-cell medium. Cultures are incubated at 37° C. in a humidified atmosphere and colonies are counted at seven days.

[3] = test system: natural killer lymphocytes (NK cells); assay: Stimulation of NK-cell activity in normal mice

CCN(CC)CCOc1ccc2cc3ccc(OCCN(CC)CC)cc3nc2c1.Cl.Cl.Cl
Median survival time (Lewis lung carcinoma; 50 mg/kg oral): > 90.0 days
Average % of tumor weight inhibition (Lewis lung carcinoma; 50 mg/kg oral): 38%
Average tumor weight (Lewis lung carcinoma; 50 mg/kg oral): 236 mg
No. Survivors/No. Treated (Lewis lung carcinoma; 50 mg/kg oral): 8/12
% Increased life-span (Lewis lung carcinoma; 50 mg/kg oral): > 200%
Median survival time (Lewis lung carcinoma; 100 mg/kg oral): > 90.0 days
Average % of tumor weight inhibition (Lewis lung carcinoma; 100 mg/kg oral): 46%
Average tumor weight (Lewis lung carcinoma; 100 mg/kg oral): 203 mg
No. Survivors/No. Treated (Lewis lung carcinoma; 100 mg/kg oral, ** p < .05): 9/12
% Increased life-span (Lewis lung carcinoma; 100 mg/kg oral): > 200%
Median survival time (Lewis lung carcinoma; 200 mg/kg oral): > 90.0 days
Average tumor weight (Lewis lung carcinoma; 200 mg/kg oral): 38 mg
Average % of tumor weight inhibition (Lewis lung carcinoma; 200 mg/kg oral, * significant (≥58%)): 90%
No. Survivors/No. Treated (Lewis lung carcinoma; 200 mg/kg oral, ** p < .05): 12/12
% Increased life-span (Lewis lung carcinoma; 200 mg/kg oral): > 200%
Median survival time (Lewis lung carcinoma; 300 mg/kg oral): > 90.0 days
Average tumor weight (Lewis lung carcinoma; 300 mg/kg oral): 56 mg
Average % of tumor weight inhibition (Lewis lung carcinoma; 300 mg/kg oral, * significant (≥58%)): 85%
No. Survivors/No. Treated (Lewis lung carcinoma; 300 mg/kg oral, ** p < .05): 10/12
% Increased life-span (Lewis lung carcinoma; 300 mg/kg oral): > 200%
Median survival time (Lewis lung carcinoma; 400 mg/kg oral): > 90.0 days
Average tumor weight (Lewis lung carcinoma; 400 mg/kg oral): 17 mg
Average % of tumor weight inhibition (Lewis lung carcinoma; 400 mg/kg oral, * significant (≥58%)): 96%
No. Survivors/No. Treated (Lewis lung carcinoma; 400 mg/kg oral, ** p < .05): 10/12
% Increased life-span (Lewis lung carcinoma; 400 mg/kg oral): > 200%
Induction of circulating interferon, in words (circulating interferon): induced the production of high levels of circulating interferon
Time of peak titers of interferon after drug administration (circulating interferon): 16 to 24 h
Serum interferon titer (circulating interferon; 0 hours): 10 units/ml
Serum interferon titer (circulating interferon; 8 hours): 100 units/ml
Serum interferon titer (circulating interferon; 16 hours): 3200 units/ml
Serum interferon titer (circulating interferon; 24 hours): 3200 units/ml
Serum interferon titer (circulating interferon; 32 hours): 2100 units/ml
Serum interferon titer (circulating interferon; 48 hours): 50 units/ml
Interferon titer 72 hours after drug treatment, in words (circulating interferon; 72 hours): at normal levels
Serum interferon titer (circulating interferon; 72 hours): 10 units/ml
Survivors/Total (Columbia SK virus [1]): 10/15
Survivors/Total (14 Days) (Columbia SK virus [2]; -24 hr relative to virus challenge, * p <.01): 19/20
Survivors/Total (14 Days) (Columbia SK virus [2]; -48 hr relative to virus challenge, * p <.01): 10/20
Survivors/Total (14 Days) (Columbia SK virus [2]; -72 hr relative to virus challenge): 1/20
Survivors/Total (14 Days) (Columbia SK virus [2]; -96 hr relative to virus challenge): 1/20
Effect on total nucleated cell count of femur marrow, in words (normal mouse bone marrow): minimal effects on the total nucleated cell count
% Cytotoxicity ([3]; Test 1 (CD1 mice), 75 mg/kg oral, ** p <.01): 29.5%
% Cytotoxicity ([3]; Test 1 (CD1 mice), 150 mg/kg oral, ** p <.01): 37.7%
% Cytotoxicity ([3]; Test 1 (CD1 mice), 300 mg/kg oral, * p <.05): 25.8%
% Cytotoxicity ([3]; Test 2 (BDF1 hybrids), 75 mg/kg oral, ** p <.01): 44.4%
% Cytotoxicity ([3]; Test 2 (BDF1 hybrids), 150 mg/kg oral, ** p <.01): 40.9%
% Cytotoxicity ([3]; Test 2 (BDF1 hybrids), 300 mg/kg oral, * p <.05): 38.2%
Stimulation of NK cell activity, in words ([3]; mouse, in vivo): active in this test
